Laboratory results reported in US6465440B2, “Antimutagenic compositions for treatment and prevention of photodamage to skin” (Wellstat Therapeutics Corporation, priority 1997, dated 2002).

Experiments:
[1] = system: Human melanocytes; assay: Nitric oxide-induced DNA strand breaks with or without UV (pulsed field gel electrophoresis); type: cell-based
Protocol: Human melanocytes were exposed to 160 μM DETA NONOate (Alexis Corporation, Cat #430-014-M005), a reagent which spontaneously produces nitric oxide when exposed to water. Cells were exposed to NO alone, or NO plus increasing doses of UV radiation (50 and 300 J/m^2). Groups of cells were also exposed to deoxyribonucleosides of the invention before, or before and after, exposure to NO or NO+UV radiation; control groups were treated identically except for addition of deoxyribonucleosides.
DNA was extracted from cells and subjected to pulsed field gel electrophoresis to determine the incidence of DNA strand breaks.

[2] = system: human fibroblasts; assay: UV-induced DNA single strand breaks (nucleoid position, alkaline sucrose gradient) with oxybenzone; type: cell-based
Protocol: (§1) Confluent human fibroblasts in T25 flasks were washed 3 times with HBSS (Hank's Balanced Salt Solution) and incubated with vehicle or with various concentrations of oxybenzone (OB) for 2 hours. Media was aspirated and cells were covered with a 1 mm layer of HBSS and irradiated from above with UV-B (50 J/m^2). The medium was aspirated and cells were incubated for three hours with 2 mM hydroxyurea. Medium was again aspirated, and cells were trypsinized with 0.25% trypsin/EDTA. Cells were centrifuged at 4° C., resuspended in 50 microliters of HBSS and incubated at room temperature with 200 microliters of 1N NaOH for 15 minutes. DNA damage (single strand breaks) was assessed by alkaline sucrose gradient centrifugation. “Nucleoid position” in the sucrose gradient is proportional to the number of DNA single strand breaks.

[3] = system: human fibroblasts; assay: Photodynamic enhancement of DNA damage by UV plus oxybenzone, attenuation by deoxyribonucleosides (nucleoid position); type: cell-based; details: UV + 2 μM OB, no dNsides
Protocol: as §1
(§2) Confluent human fibroblasts were exposed to 2 micromolar oxybenzone (OB), as in Example 3, prior to exposure to UV-B radiation (50 J/m^2). Different flasks of cells also were exposed to increasing concentrations of deoxyribonucleosides. Cells were processed for determination of nucleoid position in a sucrose density gradient, a measure of DNA single strand breaks.

[4] = system: v-Ha-ras TG.AC mice; assay: Individual deoxyribonucleosides versus combination on UV-induced tumorigenesis in v-Ha-ras TG.AC mice; type: in vivo, mouse; details: UV 1.25 kJ/m^2 on days 0, 6, 8 and 11; 4 mg/ml (each) in propylene glycol beginning 30 minutes after irradiation; vehicle 1.8
Protocol: Thirty v-Ha-ras TG.AC mice aged twelve weeks were shaved and subjected to ultraviolet radiation, 1.25 kJ/m^2 on days 0, 6, 8 and 11, at a dose rate of 12.5 W/m2. Mice were divided into groups of five animals each and treated, beginning 30 minutes after irradiation, with: 1. Vehicle (propylene glycol) 2.

[5] = system: human fibroblasts; assay: Individual versus combined deoxyribonucleosides on photodynamically enhanced UV-induced DNA strand breaks; type: cell-based; details: UV with 2 μM oxybenzone; individual compounds 20 μM, combination 20 μM each; UV + vehicle .325
Protocol: as §2, with “breaks. […] Individual deoxyribonucleosides were tested at concentrations of 20 μM, and the combination of all four deoxyribonucleosides contained thymidine, deoxycytidine. deoxyadenosine and deoxyguanosine at 20 μM each.” for “breaks.”

Compound	Papillomas/mouse at the end of 8 weeks [4]	DNA Strand Breaks [5]	further results
[N]=O [NO, Nitric oxide]	–	–	DNA Strand Breaks ([1]; NO + UV 50 J/m^2): 0.21 breaks/105 MDa; DNA Strand Breaks ([1]; NO + UV 300 J/m^2): 0.51 breaks/105 MDa; DNA Strand Breaks ([1]; NO alone (160 μM DETA NONOate)): 0.13 breaks/105 MDa
COc1ccc(C(=O)c2ccccc2)c(O)c1 [OB, oxybenzone (benzophenone-3)]	–	–	Nucleoid Position ([2]; UV 50 J/m^2 + 2 μM OB, 2 hours preincubation): 32 mm; Nucleoid Position ([2]; UV 50 J/m^2 + 20 μM OB): 4 mm; Nucleoid Position ([2]; UV 50 J/m^2 + 200 μM OB): 3 mm; Nucleoid position relative to non-irradiated cells ([2]; UV 50 J/m^2 + 2 micromolar OB): 10 fold; Nucleoid Position [3]: 56 mm
Nc1ncnc2c1ncn2[C@H]1C[C@H](O)[C@@H](CO)O1 [deoxyadenosine, Deoxyadenosine]	0.67 Papillomas/mouse	.17 Breaks/47 MDa	–
Nc1ccn([C@H]2C[C@H](O)[C@@H](CO)O2)c(=O)n1 [deoxycytidine, Deoxycytidine]	0.25 Papillomas/mouse	.12 Breaks/47 MDa	–
Nc1nc2c(ncn2[C@H]2C[C@H](O)[C@@H](CO)O2)c(=O)[nH]1 [deoxyguanosine, Deoxyguanosine]	1.0 Papillomas/mouse	.17 Breaks/47 MDa	–
Cc1cn([C@H]2C[C@H](O)[C@@H](CO)O2)c(=O)[nH]c1=O [thymidine, Thymidine]	1.6 Papillomas/mouse	.13 Breaks/47 MDa	–
